Source: article PMC6895180 (Nature Communications, 2019)
Where “and” joins values, the source holds several entries; their conditions need not be identical. Identical values can stand only once. Like-named read-outs stand apart in the source and are kept apart here.

Experiments:
T. brucei Squib 427 = experiment: microbe, parasite or virus in culture; type: cell-based, Trypanosoma brucei brucei; details: for EC50: Trypanosoma brucei
[1] = system: T. brucei BSF s427 wildtype cells; experiment: Growth assays of T. brucei (trypanocidal/trypanostatic effect); type: cell-based, Trypanosoma brucei
Method: Growth assays of T. brucei
To test the effect of the novel adenosine analogues on the growth of T. brucei BSF, s427 wildtype cells were seeded at 1×10^5 cells mL-1 in 5 mL of HMI-9 medium with 10% FBS and treated with compounds […]
cells were also incubated in drug-free medium under the same conditions. 2 μM of 2’-deoxycoformycin were added to all cultures to avoid any potential effect of serum adenosine deaminase on the activity of test compounds and cordycepin.1
Cells were manually counted in Neubauer chambers at 0, 2, 4, 6, 8, 12, 24, 36 and 48 h after addition of […]
the drugs. […]
After 6 and 12 h after addition of drugs, approximately 2×10^6 cells were harvested from each group and applied to glass slides pre-treated with poly-L-lysine, left to settle for 5 min and fixed with 4% formaldehyde for 4 min. The formaldehyde was neutralised by addition of 100 mM glycine (20 min).
Cells were washed once with PBS and blocked for 1 h with 1% BSA/0.2% Tween-20 in PBS. Cells were […]

P1 transporter = type: cell-based, Trypanosoma brucei
Method: Non-specific association of radiolabel with the cell pellet was determined using an identical incubation in the presence of saturating (1 mM) unlabelled adenosine.

[2] = system: B48: pentamidine, diminazene and melaminophenyl arsenical resistant T. brucei line; experiment: microbe, parasite or virus in culture; type: cell-based, Trypanosoma brucei brucei; details: for EC50: Trypanosoma brucei

Q: For `Nc1ncnc2c1c(Br)cn2[C@@H]1O[C@H](CO)C[C@H]1O` [Compound 10, 3’-deoxy-7-Br-tubercidin], which EC50 (T. brucei Squib 427; Alamar blue cell viability assay, mean and SEM, read-out: T. b. brucei EC50) is on record?
A: 1.3 ± 0.3 nM

Q: What about the EC50 (T. brucei Squib 427; source data, read-out: T. brucei brucei EC50, Average) of the same molecule?
A: 1.29 nM

Q: What about the “SI (MRC/T.b. brucei)” value (T. brucei Squib 427; selectivity index) of the same molecule?
A: 11,462

Q: And the “AVG of cells/mL” value ([1]; 2xEC50, 2 h, experiment 1)?
A: 128750 cells/mL

Q: And the Cells/mL ([1]; 2xEC50, 2 h, experiment 1)?
A: 137500 Cells/mL and 120000 Cells/mL

Q: And the Counts ([1]; 2xEC50, 2 h, experiment 1)?
A: 55 and 48

Q: And the “AVG of cells/mL” value ([1]; 2xEC50, 2 h, experiment 2)?
A: 145000 cells/mL

Q: What about the Cells/mL ([1]; 2xEC50, 2 h, experiment 2) of the same molecule?
A: 147500 Cells/mL and 142500 Cells/mL

Q: And the Counts ([1]; 2xEC50, 2 h, experiment 2)?
A: 59 and 57

Q: What about the “AVG of cells/mL” value ([1]; 2xEC50, 4 h, experiment 1) of the same molecule?
A: 143750 cells/mL

Q: What about the Cells/mL ([1]; 2xEC50, 4 h, experiment 1) of the same molecule?
A: 162500 Cells/mL and 125000 Cells/mL

Q: What about the Counts ([1]; 2xEC50, 4 h, experiment 1) of the same molecule?
A: 50 and 65

Q: And the “AVG of cells/mL” value ([1]; 2xEC50, 4 h, experiment 2)?
A: 148750 cells/mL

Q: What about the Cells/mL ([1]; 2xEC50, 4 h, experiment 2) of the same molecule?
A: 160000 Cells/mL and 137500 Cells/mL

Q: And the Counts ([1]; 2xEC50, 4 h, experiment 2)?
A: 55 and 64

Q: And the “AVG of cells/mL” value ([1]; 2xEC50, 6 h, experiment 1)?
A: 172500 cells/mL

Q: What about the Cells/mL ([1]; 2xEC50, 6 h, experiment 1) of the same molecule?
A: 177500 Cells/mL and 167500 Cells/mL

Q: What about the Counts ([1]; 2xEC50, 6 h, experiment 1) of the same molecule?
A: 71 and 67

Q: And the “AVG of cells/mL” value ([1]; 2xEC50, 6 h, experiment 2)?
A: 203750 cells/mL

Q: And the Cells/mL ([1]; 2xEC50, 6 h, experiment 2)?
A: 192500 Cells/mL and 215000 Cells/mL

Q: And the Counts ([1]; 2xEC50, 6 h, experiment 2)?
A: 77 and 86

Q: And the “AVG of cells/mL” value ([1]; 2xEC50, 8 h, experiment 1)?
A: 183750 cells/mL

Q: And the Cells/mL ([1]; 2xEC50, 8 h, experiment 1)?
A: 177500 Cells/mL and 190000 Cells/mL

Q: What about the Counts ([1]; 2xEC50, 8 h, experiment 1) of the same molecule?
A: 71 and 76

Q: And the “AVG of cells/mL” value ([1]; 2xEC50, 8 h, experiment 2)?
A: 206250 cells/mL

Q: And the Cells/mL ([1]; 2xEC50, 8 h, experiment 2)?
A: 215000 Cells/mL and 197500 Cells/mL

Q: And the Counts ([1]; 2xEC50, 8 h, experiment 2)?
A: 86 and 79

Q: And the “AVG of cells/mL” value ([1]; 2xEC50, 12 h, experiment 1)?
A: 163750 cells/mL

Q: What about the Cells/mL ([1]; 2xEC50, 12 h, experiment 1) of the same molecule?
A: 195000 Cells/mL and 132500 Cells/mL

Q: And the Counts ([1]; 2xEC50, 12 h, experiment 1)?
A: 78 and 53

Q: And the “AVG of cells/mL” value ([1]; 2xEC50, 12 h, experiment 2)?
A: 143750 cells/mL

Q: And the Cells/mL ([1]; 2xEC50, 12 h, experiment 2)?
A: 160000 Cells/mL and 127500 Cells/mL

Q: And the Counts ([1]; 2xEC50, 12 h, experiment 2)?
A: 64 and 51

Q: And the “AVG of cells/mL” value ([1]; 2xEC50, 24 h, experiment 1)?
A: 103750 cells/mL

Q: What about the Cells/mL ([1]; 2xEC50, 24 h, experiment 1) of the same molecule?
A: 125000 Cells/mL and 82500 Cells/mL

Q: What about the Counts ([1]; 2xEC50, 24 h, experiment 1) of the same molecule?
A: 50 and 33

Q: What about the “AVG of cells/mL” value ([1]; 2xEC50, 24 h, experiment 2) of the same molecule?
A: 15000 cells/mL

Q: And the Cells/mL ([1]; 2xEC50, 24 h, experiment 2)?
A: 15000 Cells/mL

Q: And the Counts ([1]; 2xEC50, 24 h, experiment 2)?
A: 6

Q: What about the “AVG of cells/mL” value ([1]; 2xEC50, 36 h, experiment 1) of the same molecule?
A: 103750 cells/mL

Q: And the Cells/mL ([1]; 2xEC50, 36 h, experiment 1)?
A: 107500 Cells/mL and 100000 Cells/mL

Q: And the Counts ([1]; 2xEC50, 36 h, experiment 1)?
A: 43 and 40

Q: What about the “AVG of cells/mL” value ([1]; 2xEC50, 36 h, experiment 2) of the same molecule?
A: 7500 cells/mL

Q: What about the Cells/mL ([1]; 2xEC50, 48 h, experiment 1) of the same molecule?
A: 0 Cells/mL

Q: And the Counts ([1]; 2xEC50, 48 h, experiment 1)?
A: 0

Q: And the “AVG of cells/mL” value ([1]; 2xEC50, 48 h, experiment 2)?
A: 0 cells/mL

Q: What about the Cells/mL ([1]; 2xEC50, 48 h, experiment 2) of the same molecule?
A: 0 Cells/mL

Q: And the Counts ([1]; 2xEC50, 48 h, experiment 2)?
A: 0

Q: And the “effect on T. brucei bloodstream forms in culture (cidal/static)” value ([1]; 2× and 5× EC50)?
A: trypanocidal

Q: What about the “AVG of cells/mL” value ([1]; 5xEC50, 2 h, experiment 1) of the same molecule?
A: 138750 cells/mL

Q: What about the Cells/mL ([1]; 5xEC50, 2 h, experiment 1) of the same molecule?
A: 132500 Cells/mL and 145000 Cells/mL

Q: What about the Counts ([1]; 5xEC50, 2 h, experiment 1) of the same molecule?
A: 53 and 58

Q: And the “AVG of cells/mL” value ([1]; 5xEC50, 2 h, experiment 2)?
A: 140000 cells/mL

Q: And the Cells/mL ([1]; 5xEC50, 2 h, experiment 2)?
A: 137500 Cells/mL and 142500 Cells/mL

Q: What about the Counts ([1]; 5xEC50, 2 h, experiment 2) of the same molecule?
A: 55 and 57

Q: And the “AVG of cells/mL” value ([1]; 5xEC50, 4 h, experiment 1)?
A: 152500 cells/mL

Q: And the Cells/mL ([1]; 5xEC50, 4 h, experiment 1)?
A: 150000 Cells/mL and 155000 Cells/mL

Q: And the Counts ([1]; 5xEC50, 4 h, experiment 1)?
A: 62 and 60

Q: What about the “AVG of cells/mL” value ([1]; 5xEC50, 4 h, experiment 2) of the same molecule?
A: 153750 cells/mL

Q: What about the Cells/mL ([1]; 5xEC50, 4 h, experiment 2) of the same molecule?
A: 160000 Cells/mL and 147500 Cells/mL

Q: And the Counts ([1]; 5xEC50, 4 h, experiment 2)?
A: 59 and 64

Q: What about the “AVG of cells/mL” value ([1]; 5xEC50, 6 h, experiment 1) of the same molecule?
A: 171250 cells/mL

Q: What about the Cells/mL ([1]; 5xEC50, 6 h, experiment 1) of the same molecule?
A: 167500 Cells/mL and 175000 Cells/mL

Q: And the Counts ([1]; 5xEC50, 6 h, experiment 1)?
A: 67 and 70

Q: And the “AVG of cells/mL” value ([1]; 5xEC50, 6 h, experiment 2)?
A: 140000 cells/mL

Q: What about the Cells/mL ([1]; 5xEC50, 6 h, experiment 2) of the same molecule?
A: 155000 Cells/mL and 125000 Cells/mL

Q: What about the Counts ([1]; 5xEC50, 6 h, experiment 2) of the same molecule?
A: 62 and 50

Q: What about the “AVG of cells/mL” value ([1]; 5xEC50, 8 h, experiment 1) of the same molecule?
A: 131250 cells/mL

Q: What about the Cells/mL ([1]; 5xEC50, 8 h, experiment 1) of the same molecule?
A: 130000 Cells/mL and 132500 Cells/mL

Q: And the Counts ([1]; 5xEC50, 8 h, experiment 1)?
A: 52 and 53

Q: And the “AVG of cells/mL” value ([1]; 5xEC50, 8 h, experiment 2)?
A: 146250 cells/mL

Q: And the Cells/mL ([1]; 5xEC50, 8 h, experiment 2)?
A: 142500 Cells/mL and 150000 Cells/mL

Q: What about the Counts ([1]; 5xEC50, 8 h, experiment 2) of the same molecule?
A: 57 and 60

Q: And the “AVG of cells/mL” value ([1]; 5xEC50, 12 h, experiment 1)?
A: 98750 cells/mL

Q: What about the Cells/mL ([1]; 5xEC50, 12 h, experiment 1) of the same molecule?
A: 107500 Cells/mL and 90000 Cells/mL

Q: And the Counts ([1]; 5xEC50, 12 h, experiment 1)?
A: 43 and 36

Q: What about the “AVG of cells/mL” value ([1]; 5xEC50, 12 h, experiment 2) of the same molecule?
A: 95000 cells/mL

Q: What about the Cells/mL ([1]; 5xEC50, 12 h, experiment 2) of the same molecule?
A: 92500 Cells/mL and 97500 Cells/mL

Q: And the Counts ([1]; 5xEC50, 12 h, experiment 2)?
A: 37 and 39

Q: What about the “AVG of cells/mL” value ([1]; 5xEC50, 24 h, experiment 1) of the same molecule?
A: 28750 cells/mL

Q: What about the Cells/mL ([1]; 5xEC50, 24 h, experiment 1) of the same molecule?
A: 27500 Cells/mL and 30000 Cells/mL

Q: And the Counts ([1]; 5xEC50, 24 h, experiment 1)?
A: 11 and 12

Q: And the “AVG of cells/mL” value ([1]; 5xEC50, 24 h, experiment 2)?
A: 7500 cells/mL

Q: What about the Cells/mL ([1]; 5xEC50, 24 h, experiment 2) of the same molecule?
A: 7500 Cells/mL

Q: And the Counts ([1]; 5xEC50, 24 h, experiment 2)?
A: 3

Q: And the “AVG of cells/mL” value ([1]; 5xEC50, 36 h, experiment 1)?
A: 18750 cells/mL

Q: What about the Cells/mL ([1]; 5xEC50, 36 h, experiment 1) of the same molecule?
A: 12500 Cells/mL and 25000 Cells/mL

Q: What about the Counts ([1]; 5xEC50, 36 h, experiment 1) of the same molecule?
A: 5 and 10

Q: What about the “AVG of cells/mL” value ([1]; 5xEC50, 36 h, experiment 2) of the same molecule?
A: 1250 cells/mL

Q: What about the Cells/mL ([1]; 5xEC50, 48 h, experiment 1) of the same molecule?
A: 0 Cells/mL

Q: What about the Counts ([1]; 5xEC50, 48 h, experiment 1) of the same molecule?
A: 0

Q: And the “AVG of cells/mL” value ([1]; 5xEC50, 48 h, experiment 2)?
A: 0 cells/mL

Q: What about the Cells/mL ([1]; 5xEC50, 48 h, experiment 2) of the same molecule?
A: 0 Cells/mL

Q: What about the Counts ([1]; 5xEC50, 48 h, experiment 2) of the same molecule?
A: 0

Q: What about the “fold improvement of affinity for P1” value (P1 transporter; 10 versus 9 (bromine at 7-position)) of the same molecule?
A: 10 fold

Q: And the Ki (P1 transporter; Cheng–Prusoff from IC50, read-out: P1 transporter Ki, single experiments)?
A: 13.4 µM and 8.5 µM and 8.4 µM

Q: And the Ki (P1 transporter; inhibition of [3H]adenosine uptake, mean ± SEM, n = 3, read-out: P1 transporter Ki)?
A: 9.47 ± 1.4 µM

Q: What about the Ki (P1 transporter; source data, read-out: P1 transporter Ki, AVG) of the same molecule?
A: 10.1 µM

Q: What about the EC50 ([2]; mean and SEM, n = 3, read-out: B48 EC50) of the same molecule?
A: 1.3 ± 0.3 nM

Q: And the EC50 ([2]; source data, read-out: B48 EC50, AVG)?
A: 1.32 nM

Q: And the “RF (B48)” value ([2]; resistance factor vs Lister 427WT)?
A: 0.75
